Target: Beta-glucuronidase (Escherichia coli (strain K12), UniProt P05804)
Experiment: β-Glucuronidase Activity Assay
Description: The β-glucuronidase assay was performed by the addition of 0.5 μl of compound (or DMSO) to the well of a black 384-well plate followed by the addition of 30 μl of diluted β-glucuronidase enzyme. […] After a 30 minute incubation at room temperature, the reaction was stopped by the addition of 20 ul 1 M Na2CO3. […] Minimum (min) controls were performed using reactions with no enzyme. Maximum (max) controls were performed using no compound. 1% DMSO was maintained in all reactions. Percent inhibition was calculated using RFU data by the following formula: [1−(assay readout-average of min)/(Average of Max-Average of Min)]×100

Beta-glucuronidase, sequence (P05804 whole entry): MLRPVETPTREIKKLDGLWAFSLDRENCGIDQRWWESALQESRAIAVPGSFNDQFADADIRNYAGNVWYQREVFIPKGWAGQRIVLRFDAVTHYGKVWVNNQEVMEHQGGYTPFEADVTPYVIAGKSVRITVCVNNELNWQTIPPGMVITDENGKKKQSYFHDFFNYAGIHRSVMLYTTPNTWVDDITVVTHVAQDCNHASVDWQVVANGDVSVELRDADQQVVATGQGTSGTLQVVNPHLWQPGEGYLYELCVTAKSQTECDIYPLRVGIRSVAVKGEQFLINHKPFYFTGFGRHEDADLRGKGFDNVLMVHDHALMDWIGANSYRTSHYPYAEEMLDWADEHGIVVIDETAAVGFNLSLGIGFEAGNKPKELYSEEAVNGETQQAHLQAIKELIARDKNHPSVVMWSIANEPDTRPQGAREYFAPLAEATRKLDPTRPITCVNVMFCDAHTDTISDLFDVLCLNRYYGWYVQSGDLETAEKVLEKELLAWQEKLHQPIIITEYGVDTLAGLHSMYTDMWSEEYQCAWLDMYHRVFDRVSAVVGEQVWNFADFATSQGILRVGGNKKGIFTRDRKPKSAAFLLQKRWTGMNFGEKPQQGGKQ

## O=S(=O)(NCc1cccc2ccccc12)c1cc(Cl)c(Oc2ccc3c(c2)OCO3)s1 [US9617239, BRITE-355233]
  IC50: 376 µM

Reference: BindingDB's records for patent US9617239 (North Carolina Central University, 2017)
